{"source": "patent US9316913B2", "about": "“Underlayer film-forming material for lithography, underlayer film for lithography, and pattern formation method” (MITSUBISHI GAS CHEMICAL COMPANY, INC., priority 2011, dated 2016)", "key": {"[1]": {"assay": "Solubility in PGME and PGMEA", "type": "physicochemical", "settings": "23° C.", "procedure": "Herein, the solubility in PGME or PGMEA is defined as “Mass of resin/(Mass of resin+Mass of solvent)×100 (% by mass)”.\nThe amount of each compound dissolved in 1-methoxy-2-propanol (PGME) and propylene glycol monomethyl ether acetate (PGMEA) was measured at 23° C., and the results were evaluated according to the following criteria.\nEvaluation A: 10% by weight or more\nEvaluation B: 3% by weight or more and less than 10% by weight\nEvaluation C: less than 3% by weight"}, "[2]": {"assay": "Pyrolysis temperature", "type": "physicochemical", "settings": "thermogravimetric measurement (TG); nitrogen stream, 10° C./min", "procedure": "An EXSTAR 6000 DSC apparatus manufactured by SII NanoTechnology Inc. was used, and about 5 mg of a sample was placed in an unsealed aluminum container and heated to 500° C. at a rate of temperature rise of 10° C./min in a nitrogen gas (30 ml/min) stream. In this time, a temperature at which a reducing portion appeared on the base line was defined as a pyrolysis temperature (Tg)."}}, "data": [{"compound": "Oc1ccc2c3c(ccc2c1)Oc1ccc2cc(O)ccc2c1C3c1ccc(-c2ccccc2)cc1", "note": "[BisN-1]", "values": [{"measurement": "solubility in PGME and PGMEA", "setting": "[1]; 1-methoxy-2-propanol (PGME) and propylene glycol monomethyl ether acetate (PGMEA)", "result": "≥ 20", "unit": "% by weight"}, {"measurement": "solubility in PGME and PGMEA (Evaluation)", "setting": "[1]", "result": "A (10% by weight or more)"}, {"measurement": "pyrolysis temperature", "setting": "[2]", "result": 410, "unit": "°C"}]}, {"compound": "Oc1ccc2ccc3c(c2c1)C(c1ccc(-c2ccccc2)cc1)c1c(ccc2ccc(O)cc12)O3", "note": "[BisN-2]", "values": [{"measurement": "solubility in PGME and PGMEA (Evaluation)", "setting": "[1]", "result": "B (3% by weight or more and less than 10% by weight)"}, {"measurement": "pyrolysis temperature", "setting": "[2]", "result": 410, "unit": "°C"}]}, {"compound": "Oc1cccc2c3c(ccc12)C(c1ccc(-c2ccccc2)cc1)c1ccc2c(O)cccc2c1O3", "note": "[BisN-3]", "values": [{"measurement": "solubility in PGME and PGMEA (Evaluation)", "setting": "[1]", "result": "B (3% by weight or more and less than 10% by weight)"}, {"measurement": "pyrolysis temperature", "setting": "[2]", "result": 410, "unit": "°C"}]}, {"compound": "Oc1cccc2c3c(ccc12)Oc1ccc2c(O)cccc2c1C3c1ccc(-c2ccccc2)cc1", "note": "[BisN-4]", "values": [{"measurement": "solubility in PGME and PGMEA (Evaluation)", "setting": "[1]", "result": "B (3% by weight or more and less than 10% by weight)"}, {"measurement": "pyrolysis temperature", "setting": "[2]", "result": 410, "unit": "°C"}]}, {"compound": "Oc1ccc2ccc3c(c2c1)Oc1c(ccc2ccc(O)cc12)C3c1ccc(-c2ccccc2)cc1", "note": "[BisN-5]", "values": [{"measurement": "solubility in PGME and PGMEA (Evaluation)", "setting": "[1]", "result": "B (3% by weight or more and less than 10% by weight)"}, {"measurement": "pyrolysis temperature", "setting": "[2]", "result": 410, "unit": "°C"}]}, {"compound": "Oc1cc2ccccc2c2c1Oc1c(O)cc3ccccc3c1C2c1ccc(-c2ccccc2)cc1", "note": "[BisN-6]", "values": [{"measurement": "solubility in PGME and PGMEA (Evaluation)", "setting": "[1]", "result": "B (3% by weight or more and less than 10% by weight)"}, {"measurement": "pyrolysis temperature", "setting": "[2]", "result": 410, "unit": "°C"}]}, {"compound": "Oc1ccc2c3c(ccc2c1)Oc1ccc2cc(O)ccc2c1C3c1cccc2ccccc12", "note": "[BisN-7]", "values": [{"measurement": "solubility in PGME and PGMEA (Evaluation)", "setting": "[1]", "result": "B (3% by weight or more and less than 10% by weight)"}, {"measurement": "pyrolysis temperature", "setting": "[2]", "result": 415, "unit": "°C"}]}, {"compound": "Oc1ccc2c3c(ccc2c1)Oc1ccc2cc(O)ccc2c1C3c1cc2ccccc2c2ccccc12", "note": "[BisN-8]", "values": [{"measurement": "solubility in PGME and PGMEA (Evaluation)", "setting": "[1]", "result": "B (3% by weight or more and less than 10% by weight)"}, {"measurement": "pyrolysis temperature", "setting": "[2]", "result": 415, "unit": "°C"}]}, {"compound": "Oc1ccc2c3c(ccc2c1)Oc1ccc2cc(O)ccc2c1C3c1ccc2ccc3cccc4ccc1c2c34", "note": "[BisN-9]", "values": [{"measurement": "solubility in PGME and PGMEA (Evaluation)", "setting": "[1]", "result": "B (3% by weight or more and less than 10% by weight)"}, {"measurement": "pyrolysis temperature", "setting": "[2]", "result": 420, "unit": "°C"}]}, {"compound": "Oc1ccc2c3c(ccc2c1)Oc1ccc2cc(O)ccc2c1C31CCCCC1", "note": "[BisN-10]", "values": [{"measurement": "solubility in PGME and PGMEA (Evaluation)", "setting": "[1]", "result": "B (3% by weight or more and less than 10% by weight)"}, {"measurement": "pyrolysis temperature", "setting": "[2]", "result": 400, "unit": "°C"}]}, {"compound": "Oc1ccc2c3c(ccc2c1)Oc1ccc2cc(O)ccc2c1C31c2ccccc2-c2ccccc21", "note": "[BisN-11]", "values": [{"measurement": "solubility in PGME and PGMEA (Evaluation)", "setting": "[1]", "result": "B (3% by weight or more and less than 10% by weight)"}, {"measurement": "pyrolysis temperature", "setting": "[2]", "result": 450, "unit": "°C"}]}, {"compound": "Oc1ccc2c3c(ccc2c1)Oc1ccc2cc(O)ccc2c1C3c1ccc(C2c3c(ccc4cc(O)ccc34)Oc3ccc4cc(O)ccc4c32)cc1", "note": "[BisN-12]", "values": [{"measurement": "solubility in PGME and PGMEA (Evaluation)", "setting": "[1]", "result": "B (3% by weight or more and less than 10% by weight)"}, {"measurement": "pyrolysis temperature", "setting": "[2]", "result": 410, "unit": "°C"}]}, {"compound": "Oc1ccc2c3c(ccc2c1)Oc1ccc2cc(O)ccc2c1C3c1ccc(-c2ccc(C3c4c(ccc5cc(O)ccc45)Oc4ccc5cc(O)ccc5c43)cc2)cc1", "note": "[BisN-13]", "values": [{"measurement": "solubility in PGME and PGMEA (Evaluation)", "setting": "[1]", "result": "B (3% by weight or more and less than 10% by weight)"}, {"measurement": "pyrolysis temperature", "setting": "[2]", "result": 410, "unit": "°C"}]}, {"compound": "Oc1ccc2c3c(ccc2c1)Oc1ccc2cc(O)ccc2c1C3c1cc(C2c3c(ccc4cc(O)ccc34)Oc3ccc4cc(O)ccc4c32)cc(C2c3c(ccc4cc(O)ccc34)Oc3ccc4cc(O)ccc4c32)c1", "note": "[BisN-14]", "values": [{"measurement": "solubility in PGME and PGMEA (Evaluation)", "setting": "[1]", "result": "B (3% by weight or more and less than 10% by weight)"}, {"measurement": "pyrolysis temperature", "setting": "[2]", "result": 410, "unit": "°C"}]}]}
